In data set [1] the test system is YFP-SUMO1. The data set can be described thus: YFP-SUMO1 accumulation (cell image) in HEK-293 cells expressing YFP-SUMO1 and pcDNA3.0-SERCA2a. Format: cell-based. Conditions: increase vs. DMSO; for YFP accumulation: 10 μM, 24 hours; for fold induction at 10 µM: Homo sapiens, HEK293, 24 hours. The text has this:
(§1) The following antibodies were used for immunoblotting and immunoprecipitation (IP): polyclonal anti-SERCA2a (21th century Biochem Inc.), monoclonal anti-GAPDH (Sigma-Aldrich, catalog no. G8795), monoclonal anti-SUMO 1 (Cell Signaling Technology Inc., catalog no. 4930), anti-mouse horseradish peroxidase (HRP) (Pierce Biotechnology Inc., catalog no. 32430), and anti-rabbit HRP (Pierce Biotechnology Inc., catalog no. 32460). YFP-tagged SUMO1, pcDNA3.0-SERCA2a, and HA-tagged Ubc9 plasmids were used for the transfection. The plasmid DNA was amplified in the Escherichia coli strain DH5a and extracted by using a commercial purification kit (Qiagen, catalog no. 12263). Purified plasmid was resuspended in sterile TE buffer (10 mM Tris-HCl and 1 mM EDTA, pH 7.6). Only the preparation highest purity (A260/A280>1.8) was used for transfection. 1 μg of each plasmid was used for transfection. HEK-293 cells (American Type Culture Collection, catalog no. CRL-1873) were grown at 37° C. and under a 5% CO2 humidified atmosphere in Dulbecco's modified Eagle's medium (DMEM, Cellgro, catalog no. 10-0 13-CM) containing 10% fetal bovine serum (SAFC Bioscience, catalog no. 12107) and 100 i.u of penicillin/ml and 100 μg of streptomycin/ml. HEK-293 cells were seeded at a density of 3-5×10^5 cells per 60 mm culture dish in DMEM. The cells were transiently transfected using Lipofectamine 2000 (Invitrogen, catalog no. 11668) with indicated expression plasmids. After 24 hours, the cells were treated with either small molecules or dimethyl sulfoxide (DMSO, Sigma-Aldrich, catalog no. D2650).
(§2) Each compound was added at 10 μM. DMSO was used as a control. After 24 hours at 37° C., SERCA2a SUMOylation and functional analysis were determined.
Cellular permeability and potential activity of the compounds were examined by tracking of the YFP-SUMO1. HEK-293 cells expressing YFP-SUMOI and pcDNA3.0-SERCA2a were incubated with either 10 μM DMSO or 10 μM small molecules for 24 hours at 37° C. Fluorescent signals were monitored by fluorescence microscopy. HA-tagged Ubc9 expressing cells were served as a positive control.
The ability of the Example compound to SUMOylate SERCA2a was examined using an in vitro system in HEK 293 cells where both SERCA2a and SUMO 1 are expressed. The cellular permeability and potential activity of the Example compounds was examined by tracking of the YFP-SUM01. HEK-293 cells expressing YFP-SUM01 and pcDNA3.0-SERCA2a were treated with either 10 μM DMSO or 10 μM indicated Example 1 for 24 hrs. Fluorescent signals were monitored by fluorescence microscopy. HA-Ubc9 expressing cells were served as a positive control. The SERCA2a SUMOylation profiling was then analyzed by using the same cells (FIG. 1B, WCL, whole cell lysates; S-SERCA2a, SUMOylated SERCA2a).

Data set [2] relates to SERCA2a. In words: SERCA2a SUMOylation assay in HEK-293 cells (immunoprecipitation/immunoblotting). Format: cell-based. Conditions: compared with DMSO control; 10 μM.
Text: as §1, §2
Equal amounts of protein from either small molecule treated or DMSO treated cells or immunoprecipitates were resolved by 7.5% SDS-PAGE and transferred to nitrocellulose membranes (Bio-Rad, catalog no. 162-0112). The membranes were blocked for 1 hour at room temperature with 5% non-fat milk (Cell Signaling Technology Inc., catalog no. 9999) in TBST (10 mM Tris-HCl, 150 mM NaCl, and 0.05% tween-20, pH 8.0). The blots were incubated with specific primary antibodies at 4° C. for overnight. The blots were then washed five times for 10 minutes each with TBST and incubated for 1 hour with HRP-conjugated secondary antibodies in TBST with 5% non-fat milk. After five times TBST washes, the protein bands were visualized with enhanced chemiluminescence (Pierce Biotechnology Inc., catalog no. 32132) and exposed to x-ray film (Denville Scientific Inc., catalog no. E3012). GAPDH expression provided an internal control.
Post-transfection (48 hours), the HEK-293 cells were rinsed twice with phosphate-buffered saline (PBS, Cellgro, catalog no. 21-040-CM) and lysed in 1% Nonidet P-40 lysis buffer (Boston Bioproducts, catalog no. BP-119) with 10 mM N-ethylmaleimide (NEM, Sigma-Aldrich, catalog no. N3876) and […] inhibitor cocktail (Complete Mini Tablet, Roche Applied Science, catalog no. 11836153001). 2 mg of protein were mixed with the anti-SERCA2a antibodies for overnight at 4° C. in lysis buffer. Pre-washed protein A-Separose beads (Pierce Biotechnology Inc., catalog no. 20333) was added to each sample and incubated 1 hour at 4° C. with gentle rocking. Immunocomplexes were washed with lysis buffer three times and precipitated by centrifugation at 12000×g for 10 seconds. The immunocomplexes were resuspended in SDS sample buffer and subjected to immunoblotting. Controls for the immunoprecipitations were performed using an anti-rabbit IgG equal to that of the primary precipitating antibody. Ten percent of whole cell lysates used in the immunoprecipitation was loaded for subsequent immunoblotting.
The ability of the Example compound to SUMOylate SERCA2a was examined using an in vitro system in HEK 293 cells where both SERCA2a and SUMO 1 are expressed. […]
A general note: Immunoblotting shows a protein as a band on a membrane.

Data set [3] can be described thus: Solubility (Table 2). Conditions: DMSO, organic solvent or mixture.
Data set [4] concerns HEK-293 cells. The data set can be described thus: Toxicity (Table 2; cytotoxicity in the compound screen).

Consider 10 compounds from patent publication US10501453B2, “Benzothiazole or benzoxazole compounds as SUMO activators” (Icahn School of Medicine at Mount Sinai, priority 2012, dated 2019).

For orientation: solubility means how much of the substance goes into solution per volume. As usually defined, the fold induction is the ratio of treated to control signal. Low values mean a weak induction, high ones a strong induction.

In brackets after ≈: the same amount, converted by molar mass.

On to `Fc1ccc(-c2nnc(Nc3nc4ccc(F)cc4s3)o2)cc1` [Example 12, N-(6-fluorobenzo[d]thiazol-2-yl)-5-(4-fluorophenyl)-1,3,4-oxadiazol-2-amine], for which the YFP accumulation result in data set [1] was “Active”. Besides, the “SERCA2a SUMOylation” value in data set [2] is reported as “Not statistically significant”. The solubility in data set [3] is under 2.5 mM. In addition, in data set [4], the Toxicity is over 50%.
For `Fc1cccc2sc(Nc3nnc(-c4ccccc4)o3)nc12` [Example 7, N-(4-fluorobenzo[d]thiazol-2-yl)-5-phenyl-1,3,4-oxadiazol-2-amine], in data set [1], the fold induction at 10 µM stood at 2.2. Besides, the “SERCA2a SUMOylation” value in data set [2] is reported as “Not statistically significant”. In addition, in data set [3], the solubility was determined as 10 mM (≈ 3120 µg/mL). Moreover, in data set [4], the Toxicity entry is “Non-toxic”.
In the case of `COc1ccc(-c2nnc(Nc3nc4ccc(SC)cc4s3)o2)cc1` [Example 18, 5-(4-methoxyphenyl)-N-(6-(methylthio)benzo[d]thiazol-2-yl)-1,3,4-oxadiazol-2-amine], the YFP accumulation entry in data set [1] was “Active”. For the same compound, in data set [2], the “SERCA2a SUMOylation” value is recorded as “Not statistically significant”. Also, the solubility in data set [3] is under 2.5 mM. The compound also had a Toxicity in data set [4] of over 50%.
`COc1ccc(-c2nnc(Nc3nc4c(OC)cccc4s3)o2)c(OC)c1` [Example 6, 5-(2,4-dimethoxyphenyl)-N-(4-methoxybenzo[d]thiazol-2-yl)-1,3,4-oxadiazol-2-amine]: the fold induction at 10 µM in data set [1] was found to be 2.93. In addition, in data set [2], the “SERCA2a SUMOylation” value is recorded as “Not statistically significant”. Moreover, the solubility in data set [3] was found to be 10 mM (≈ 3840 µg/mL). This compound yielded a Toxicity in data set [4] of 30%.
Consider `COc1cccc(-c2nnc(Nc3nc4cc(OC)ccc4s3)o2)c1` [Example 15, N-(5-methoxybenzo[d]thiazol-2-yl)-5-(3-methoxyphenyl)-1,3,4-oxadiazol-2-amine], for which the YFP accumulation entry in data set [1] is given as “Active”. Also, the “SERCA2a SUMOylation” value in data set [2] is recorded as “Not statistically significant”. In data set [3], the solubility was under 2.5 mM. Also, the Toxicity in data set [4] is over 50%.
The compound `COc1ccc(-c2nnc(Nc3nc4cc(OC)c(OC)cc4s3)o2)cc1` [Example 17, N-(5,6-dimethoxybenzo[d]thiazol-2-yl)-5-(4-methoxyphenyl)-1,3,4-oxadiazol-2-amine] yielded a fold induction at 10 µM in data set [1] of 2.2. For the same compound, in data set [2], the “SERCA2a SUMOylation” value is “Not statistically significant”. In addition, in data set [3], the solubility was 5 mM (≈ 1920 µg/mL). Further, the Toxicity result in data set [4] is recorded as “Non-toxic”.
`COc1ccc(-c2nnc(Nc3nc4cc(OC)ccc4s3)o2)cc1` [Example 16, N-(5-methoxybenzo[d]thiazol-2-yl)-5-(4-methoxyphenyl)-1,3,4-oxadiazol-2-amine]: the YFP accumulation entry in data set [1] is on record as “Active”. Also, in data set [2], the “SERCA2a SUMOylation” value is on record as “Not statistically significant”. The solubility in data set [3] was under 2.5 mM. The Toxicity in data set [4] was over 50%.
Take `COc1cccc2sc(Nc3nnc(-c4ccc(F)cc4)o3)nc12` [Example 5, 5-(4-fluorophenyl)-N-(4-methoxybenzo[d]thiazol-2-yl)-1,3,4-oxadiazol-2-amine]: in data set [1], the fold induction at 10 µM was determined as 2.54. Moreover, in data set [2], the “SERCA2a SUMOylation” value is recorded as “Not statistically significant”. Besides, the solubility in data set [3] turned out to be 10 mM (≈ 3420 µg/mL). Besides, in data set [4], the Toxicity entry was “Non-toxic”.
As to `Fc1ccc2nc(Nc3nnc(-c4ccccc4Cl)o3)sc2c1` [Example 11, 5-(2-chlorophenyl)-N-(6-fluorobenzo[d]thiazol-2-yl)-1,3,4-oxadiazol-2-amine], the YFP accumulation entry in data set [1] is given as “Active”. In data set [2], the “SERCA2a SUMOylation” value is recorded as “Not statistically significant”. Besides, the solubility in data set [3] was under 2.5 mM. Moreover, the Toxicity in data set [4] is listed as over 50%.
For `COc1cccc(-c2nnc(Nc3nc4ccc(F)cc4s3)o2)c1` [Example 13, N-(6-fluorobenzo[d]thiazol-2-yl)-5-(3-methoxyphenyl)-1,3,4-oxadiazol-2-amine] the same measures were “Active”, “Not statistically significant”, under 2.5 mM and over 50%.
